Assay results: patent US20080103205A1, “Pesticidal compositions and methods of use” (priority 2006, published 2008)
Like-named read-outs stand apart in the source and are kept apart here.

Legend:
[1] = system: Caenorhabditis elegans; test: Toxicity test, adult Caenorhabditis elegans, 96 well micro plate; format: in vivo; conditions: Caenorhabditis elegans
Experimental: Methodology: Toxicity tests were conducted using J2 juveniles of Meloidogyne incognita adult Caenorhabditis elegans collected from nematode-infested tomato plant roots and culture Petri plates, respectively. Test concentrations of 50, 100, 200, 300, or 400 ppm were prepared in 0.2% dimethylsulfoxide (DMSO) in tap water. Aliquots (300 microliters (ul)) were applied to a 96 well micro plate and a 20 ul aqueous solution containing nematodes was added. The number of nematodes in 20 ul ranged from 17 to 30. Micro plates were sealed with Parafilm™ and incubated at room temperature. Similar tests conducted with 0.2% DMSO in tap water served as controls. Nematode mortality was checked at 24, 48, 72, 120, and 168 hr after incubation. Nematodes that were motionless for 30 sec when observed under a stereomicroscope were considered paralyzed and included in mortality counts. Each concentration was replicated five times and mean percent mortality was calculated after correcting for control mortality using Abbott's formula.
Data Analysis: Mortality data were analyzed using PROC PROBIT (SAS) program and LC50 values were estimated.

[2] = system: Meloidogyne incognita eggs; test: M. incognita egg hatching; format: in vivo
Experimental: Meloidogyne incognita (plant parasitic nematode) eggs were collected from tomato plant roots and were suspended in water. The solution was either diluted or concentrated to adjust the egg load to about 5000/ml. AT stock solutions prepared in DMSO and 300 ul of test solution was placed in a well, along with 20 ul of aqueous solution containing eggs. The number of eggs in 20 ul solution ranged from 115 to 143 (n=10). Each treatment (2, 5, 10, 20, or 40 ppm) was replicated 5 times. Microplates were sealed with Parafilm™ and incubated at room temperature. Similar tests conducted with 0.2% DMSO alone served as controls. Egg hatching was monitored at 24, 72, 120, and 168 hr after incubation. Both moving and non-moving nematodes were counted to arrive at the number of eggs hatched. Proportion of egg hatch was calculated as the number of juveniles divided by total number of eggs.
VSCC blockers effect on M. incognita egg hatching is shown in the following tables where % hatched is rounded to the nearest percentage point and where “% C*” is % hatch, normalized to control.

[3] = 24 h, read-out: Corrected Mortality (%)
[4] = 48 h, read-out: Corrected Mortality (%)
[5] = 72 h, read-out: Corrected Mortality (%)
[6] = 120 h, read-out: Corrected Mortality (%)
[7] = 168 h, read-out: Corrected Mortality (%)

O=C(O)c1c2ccccc2cc2ccccc12 [9-AC, anthracene-9-carboxylic acid]
mortality at 50 ppm ([1]; 24 h): 12% | mortality at 100 ppm ([1]; 24 h): 14% | mortality at 200 ppm ([1]; 24 h): 16% | mortality at 300 ppm ([1]; 24 h): 20% | mortality at 400 ppm ([1]; 24 h): 27% | mortality at 50 ppm [1, 3]: 10% | mortality at 100 ppm [1, 3]: 12% | mortality at 200 ppm [1, 3]: 14% | mortality at 300 ppm [1, 3]: 18% | mortality at 400 ppm [1, 3]: 26% | mortality at 50 ppm ([1]; 48 h): 25% | mortality at 100 ppm ([1]; 48 h): 30% | mortality at 200 ppm ([1]; 48 h): 33% | mortality at 300 ppm ([1]; 48 h): 39% | mortality at 400 ppm ([1]; 48 h): 58% | mortality at 50 ppm [1, 4]: 23% | mortality at 100 ppm [1, 4]: 28% | mortality at 200 ppm [1, 4]: 31% | mortality at 300 ppm [1, 4]: 37% | mortality at 400 ppm [1, 4]: 57% | mortality at 50 ppm ([1]; 72 h): 44% | mortality at 100 ppm ([1]; 72 h): 48% | mortality at 200 ppm ([1]; 72 h): 58% | mortality at 300 ppm ([1]; 72 h): 65% | mortality at 400 ppm ([1]; 72 h): 83% | mortality at 50 ppm [1, 5]: 41% | mortality at 100 ppm [1, 5]: 45% | mortality at 200 ppm [1, 5]: 56% | mortality at 300 ppm [1, 5]: 63% | mortality at 400 ppm [1, 5]: 81% | mortality at 50 ppm ([1]; 120 h): 66% | mortality at 100 ppm ([1]; 120 h): 73% | mortality at 200 ppm ([1]; 120 h): 85% | mortality at 300 ppm ([1]; 120 h): 90% | mortality at 400 ppm ([1]; 120 h): 99% | mortality at 50 ppm [1, 6]: 64% | mortality at 100 ppm [1, 6]: 71% | mortality at 200 ppm [1, 6]: 84% | mortality at 300 ppm [1, 6]: 89% | mortality at 400 ppm [1, 6]: 99% | mortality at 50 ppm ([1]; 168 h): 89% | mortality at 100 ppm ([1]; 168 h): 93% | mortality at 200 ppm ([1]; 168 h): 98% | mortality at 300 ppm ([1]; 168 h): 100% | mortality at 400 ppm ([1]; 168 h): 100% | mortality at 50 ppm [1, 7]: 89% | mortality at 100 ppm [1, 7]: 92% | mortality at 200 ppm [1, 7]: 98% | mortality at 300 ppm [1, 7]: 100% | mortality at 400 ppm [1, 7]: 100% | Eggs Hatched % ([2]; 2 ppm, 24 hr): 10% | Eggs Hatched % C* (% hatch, normalized to control) ([2]; 2 ppm, 24 hr): 100% | Eggs Hatched No. ([2]; 2 ppm, 24 hr): 65 | Eggs Hatched % ([2]; 2 ppm, 72 hr): 15% | Eggs Hatched % C* (% hatch, normalized to control) ([2]; 2 ppm, 72 hr): 94% | Eggs Hatched No. ([2]; 2 ppm, 72 hr): 101 | Eggs Hatched % ([2]; 2 ppm, 120 hr): 20% | Eggs Hatched % C* (% hatch, normalized to control) ([2]; 2 ppm, 120 hr): 91% | Eggs Hatched No. ([2]; 2 ppm, 120 hr): 134 | Eggs Hatched % ([2]; 2 ppm, 168 hr): 25% | Eggs Hatched % C* (% hatch, normalized to control) ([2]; 2 ppm, 168 hr): 91% | Eggs Hatched No. ([2]; 2 ppm, 168 hr): 167 | Eggs Hatched % ([2]; 5 ppm, 24 hr): 9% | Eggs Hatched % C* (% hatch, normalized to control) ([2]; 5 ppm, 24 hr): 90% | Eggs Hatched No. ([2]; 5 ppm, 24 hr): 67 | Eggs Hatched % ([2]; 5 ppm, 72 hr): 14% | Eggs Hatched % C* (% hatch, normalized to control) ([2]; 5 ppm, 72 hr): 87% | Eggs Hatched No. ([2]; 5 ppm, 72 hr): 98 | Eggs Hatched % ([2]; 5 ppm, 120 hr): 18% | Eggs Hatched % C* (% hatch, normalized to control) ([2]; 5 ppm, 120 hr): 82% | Eggs Hatched No. ([2]; 5 ppm, 120 hr): 129 | Eggs Hatched % ([2]; 5 ppm, 168 hr): 22% | Eggs Hatched % C* (% hatch, normalized to control) ([2]; 5 ppm, 168 hr): 79% | Eggs Hatched No. ([2]; 5 ppm, 168 hr): 155 | Eggs Hatched % ([2]; 10 ppm, 24 hr): 9% | Eggs Hatched % C* (% hatch, normalized to control) ([2]; 10 ppm, 24 hr): 90% | Eggs Hatched No. ([2]; 10 ppm, 24 hr): 62 | Eggs Hatched % ([2]; 10 ppm, 72 hr): 13% | Eggs Hatched % C* (% hatch, normalized to control) ([2]; 10 ppm, 72 hr): 81% | Eggs Hatched No. ([2]; 10 ppm, 72 hr): 90 | Eggs Hatched % ([2]; 10 ppm, 120 hr): 17% | Eggs Hatched % C* (% hatch, normalized to control) ([2]; 10 ppm, 120 hr): 77% | Eggs Hatched No. ([2]; 10 ppm, 120 hr): 118 | Eggs Hatched % ([2]; 10 ppm, 168 hr): 20% | Eggs Hatched % C* (% hatch, normalized to control) ([2]; 10 ppm, 168 hr): 71% | Eggs Hatched No. ([2]; 10 ppm, 168 hr): 141 | Eggs Hatched % ([2]; 20 ppm, 24 hr): 9% | Eggs Hatched % C* (% hatch, normalized to control) ([2]; 20 ppm, 24 hr): 90% | Eggs Hatched No. ([2]; 20 ppm, 24 hr): 59 | Eggs Hatched % ([2]; 20 ppm, 72 hr): 12% | Eggs Hatched % C* (% hatch, normalized to control) ([2]; 20 ppm, 72 hr): 75% | Eggs Hatched No. ([2]; 20 ppm, 72 hr): 80 | Eggs Hatched % ([2]; 20 ppm, 120 hr): 15% | Eggs Hatched % C* (% hatch, normalized to control) ([2]; 20 ppm, 120 hr): 68% | Eggs Hatched No. ([2]; 20 ppm, 120 hr): 102 | Eggs Hatched % ([2]; 20 ppm, 168 hr): 18% | Eggs Hatched % C* (% hatch, normalized to control) ([2]; 20 ppm, 168 hr): 64% | Eggs Hatched No. ([2]; 20 ppm, 168 hr): 122 | Eggs Hatched % ([2]; 40 ppm, 24 hr): 9% | Eggs Hatched % C* (% hatch, normalized to control) ([2]; 40 ppm, 24 hr): 90% | Eggs Hatched No. ([2]; 40 ppm, 24 hr): 60 | Eggs Hatched % ([2]; 40 ppm, 72 hr): 12% | Eggs Hatched % C* (% hatch, normalized to control) ([2]; 40 ppm, 72 hr): 75% | Eggs Hatched No. ([2]; 40 ppm, 72 hr): 76 | Eggs Hatched % ([2]; 40 ppm, 120 hr): 14% | Eggs Hatched % C* (% hatch, normalized to control) ([2]; 40 ppm, 120 hr): 64% | Eggs Hatched No. ([2]; 40 ppm, 120 hr): 94 | Eggs Hatched % ([2]; 40 ppm, 168 hr): 15% | Eggs Hatched % C* (% hatch, normalized to control) ([2]; 40 ppm, 168 hr): 54% | Eggs Hatched No. ([2]; 40 ppm, 168 hr): 103
